Like-named read-outs stand apart in the source and are kept apart here.
Tests used:
[1] = In vitro stability and metabolite scouting of MRS2365 in human plasma; assay type: in vitro ADME
Method: (§1) Whole blood was obtained from male CD-1 mice and human volunteers at Seventh Wave Laboratories (Maryland Heights, MO). Plasma and blood samples were prepared using either EDTA (1 mM) or lithium heparin as anticoagulants.
Plasma Stability Determination: MRS2365, enalapril and procaine were solubilized in phosphate-buffered saline, pH 7.4. […] Stability incubations were initiated with the addition of MRS2365 (1 μM final concentration). Initial assessments of stability in EDTA-generated plasma utilized incubation timepoints of 0, 10, 30, 60, 120 and 240 minutes (FIGS. 3 and 4). […]
Plasma and blood samples were also qualitatively analyzed for MRS2365 metabolites utilizing a LC-MS/MS-based “metabolite scouting” protocol. […] Blood and plasma samples were analyzed by both positive- and negative-ion LC/MS-MS for parent compound and metabolites as it was anticipated that the phosphorylated compounds would preferentially generate negative ions while the riboside MRS4322 would preferentially generate positive ions. In positive-ion mode, extracted ion chromatograms monitored masses in the range of 323.7-324.7 and 403.7-404.7 to scout for MRS4322 and MRS2347, respectively. Any ion peaks in these ranges were further analyzed to generate product ion spectra for these ion chromatogram peaks. […]

[2] = In vitro stability of MRS2365 in mouse plasma; assay type: in vitro ADME; conditions: heparin-treated mouse plasma, 0-90 seconds, even at 0 and 5 seconds
Method: as §1
Plasma Stability Determination: MRS2365, enalapril and procaine were solubilized in phosphate-buffered saline, pH 7.4. […] Stability incubations were initiated with the addition of MRS2365 (1 μM final concentration). Initial assessments of stability in EDTA-generated plasma utilized incubation timepoints of 0, 10, 30, 60, 120 and 240 minutes (FIGS. 3 and 4). Subsequent studies comparing EDTA- and heparin-generated plasma utilized incubation timepoints of 0, 1, 2.5, 5, 7.5, 10 and 30 minutes (FIG. 7). Additional plasma stability incubations comparing EDTA- and heparin-generated plasma were performed using timepoints of 0, 5, 10, 20, 30, 45, 60 and 90 seconds (FIG. 8). For metabolite scouting analyses, MRS2365 was incubated in heparinized human plasma at a concentration of 100 μM for 10 or 30 minutes (FIG. 9). In all studies, plasma was immediately placed in microtainer tubes, frozen on dry ice and stored at −80° C. until analysis.
The following table outlines the LC and MS/MS conditions employed (Table 11).
The calibration range for MRS2365 plasma and blood concentration standard curves was 5-5000 ng/mL. […]

[3] = Stability of MRS2365 incubated in phosphate-buffered saline; assay type: physicochemical
[4] = biological target: T1, A3 receptor (Mus musculus, UniProt Q61618); test: Affinity at the A3 receptor in the mouse as stated in the discussion; assay type: binding
T1 sequence (Q61618 1-319): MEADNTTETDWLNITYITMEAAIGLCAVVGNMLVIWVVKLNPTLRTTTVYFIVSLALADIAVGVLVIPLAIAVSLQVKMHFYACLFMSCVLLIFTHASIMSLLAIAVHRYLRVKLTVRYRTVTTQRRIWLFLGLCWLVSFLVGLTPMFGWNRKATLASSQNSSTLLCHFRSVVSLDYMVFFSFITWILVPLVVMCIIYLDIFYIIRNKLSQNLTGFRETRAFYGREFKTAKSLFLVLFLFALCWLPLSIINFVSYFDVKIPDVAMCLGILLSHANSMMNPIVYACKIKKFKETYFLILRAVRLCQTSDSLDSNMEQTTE

[5] = Pharmacokinetics of MRS4322 following intravenous administration to neonatal pigs; assay type: in vivo; conditions: 0.2 mg/kg IV; for C0: 0.2 mg/kg, neonatal pig plasma, individual animals
Method: Animals. Four-week old female neonatal pigs weighing approximately 7.5 Kg were used for this study, supplied by the Department of Bioengineering, University of Pennsylvania (Philadelphia, PA). Animals were equipped with brain microdialysis probes to obtain brain extracellular fluid samples for drug concentration determinations during the study. All studies were conducted under approved University of Pennsylvania IACUC protocols.
Drug Administration: MRS4322 was solubilized in DMSO and then diluted in saline to prepare dosing solution. A 10 mL volume of dosing solution was administered by intravenous bolus administration to each neonatal pig (n=3).
Tissue Sampling: Blood samples were obtained at 0.25, 0.5, 1, 2, 4 and 6 hours post-dose. Brain extracellular fluid samples were obtained from implanted microdialysis probes at 1, 4 and 6 hours post-dose. Whole blood (1 mL) was obtained at each timepoint and placed in vacutainer tubes containing heparin and immediately centrifuged for preparation of plasma; plasma was stored at −80° C. Brain extracellular and cerebrospinal fluid samples were stored at −80° C. At the time of euthanasia (6 hours post-dose), cerebrospinal fluid samples were obtained and frozen, while brain samples from the cortex and hippocampus were obtained by decapitation, rinsed in ice-cold phosphate-buffered saline and weighed. Brain samples were then immediately flash-frozen in liquid nitrogen and stored at −80° C.
The following table outlines the LC and MS/MS conditions employed:
The calibration ranges for all of the MRS4322 matrice's standard curves were 0.1-1000 ng/mL.
For bioanalysis of brain concentrations of MRS4322, brain samples were homogenized in ice-cold phosphate-buffered saline in a 4× dilution. Aliquots of the resulting diluted brain homogenate were treated with acetonitrile and analyzed by LC-MS/MS.

| metabolites observed (M2 = MRS2347, M1 = MRS4322) ([1]; 100 μM in human plasma, lithium heparin as anti-coagulant) | MRS2365 concentrations during incubation ([1]; heparin-treated human plasma, 0-90 seconds, even at 0 and 5 seconds) | MRS2365 concentrations during incubation [2] | stability in phosphate-buffered saline [3] | difference in affinity between MRS4322 and Cl-IB-MECA [4] | C0 ([5]; female, pig, plasma, iv, read-out: C0) [ng/mL] | C0 [5] [ng/mL] | Plasma Concentration by Subject ([5]; neonatal pigs, 0 h, individual subjects, BLQ = below 0.0975 ng/mL) | Plasma Concentration Mean ([5]; neonatal pigs, 0 h, BLQ = below 0.0975 ng/mL) | SMILES |
| --- | --- | --- | --- | --- | --- | --- | --- | --- | --- |
| Two metabolites | extremely low | extremely low | completely stable | – | – | – | – | – | CSc1nc(N)c2ncn([C@H]3[C@H](O)[C@H](O)[C@]4(COP(=O)(O)OP(=O)(O)O)C[C@H]34)c2n1 [MRS2365] |
| – | – | – | – | approximately 25,000 fold | 266 | 269 | BLQ | BLQ | CSc1nc(N)c2ncn([C@H]3[C@H](O)[C@H](O)[C@]4(CO)C[C@H]34)c2n1 [MRS4322] |
